Data taken from patent publication US20260166029A1, “METHODS AND SYSTEMS FOR TREATING DISEASE USING AN ATR/CHK1 SIGNALING PATHWAY INHIBITOR” (Acrivon Therapeutics, Inc., priority 2022, published 2026).
Like-named read-outs stand apart in the source and are kept apart here.

What was measured:
[1] = system: A375; experiment: Cell Titer Glo 2.0 relative cell viability, 72 h (Example 10); assay type: cell-based; details: Homo sapiens, A-375, A375 cell line, read-out: Abs IC50
Experimental: (§1) The present Example provides experimental evidence that cell lines predicted to be sensitive to a Chk1 inhibitor (e.g., prexasertib, are also sensitive to Wee1 inhibitors (e.g., adavosertib (AZD1775, MK1775) and azenosertib (Zn-C3)). Cell lines were treated with increasing doses of either prexasertib, adavosertib, or azenosertib, and relative cell viability against a DMSO control was assessed 72 h after drug treatment using Cell Titer Glo 2.0 (Promega) and a SpectraMax microplate reader. The results are shown in FIGS. 19A-19C. Error bars represent standard deviations from quadruplicate samples.

[2] = system: OVCAR3; experiment: as above; assay type: cell-based; details: Homo sapiens, OVCAR-3, OVCAR3 cell line, read-out: Abs IC50
Experimental: as §1

[3] = system: PC3; experiment: as above; assay type: cell-based; details: Homo sapiens, PC-3, PC3 cell line, read-out: Abs IC50
Experimental: as §1

[4] = system: HeLa; experiment: as above; assay type: cell-based; details: Homo sapiens, HeLa cell line, read-out: Abs IC50
Experimental: as §1

[5] = system: A2780; experiment: as above; assay type: cell-based; details: Homo sapiens, A2780 cell line, read-out: Abs IC50
Experimental: as §1

[6] = system: T47D; experiment: as above; assay type: cell-based; details: Homo sapiens, T47D cell line, read-out: Abs IC50
Experimental: as §1

[7] = system: BxPC3; experiment: as above; assay type: cell-based; details: Homo sapiens, BXPC-3, BxPC3 cell line, read-out: Abs IC50
Experimental: as §1

[8] = system: Head and Neck, SCC; details: cited from earlier work
[9] = system: SCLC; details: cited from earlier work
[10] = system: HCT116; details: HCT116 cell line; external data from prior publications; cited from earlier work
[11] = system: Anal, SCC; details: cited from earlier work
[12] = system: Ovarian, primary HGS; details: trial 2, 46 multi-center, 8-country study; cited from earlier work
[13] = system: OVCAR3; experiment: Cell viability, sensitivity to prexasertib (Example 1); assay type: cell-based, human; details: OVCAR3 cell line
Experimental: (§2) Predicted response to prexasertib was compared to experimentally measured sensitivity to prexasertib. […] EC50 values of less than or equal to 1 μM were considered to be actual responders, while values of greater than 1 μM were considered to be actual non-responders.

[14] = system: DU145; experiment: as above; assay type: cell-based, human; details: DU145 cell line
Experimental: as §2

[15] = system: Kuramochi; experiment: as above; assay type: cell-based, human; details: Kuramochi cell line
Experimental: as §2

[16] = system: U1752; experiment: as above; assay type: cell-based, human; details: U1752 cell line
Experimental: as §2

[17] = system: A549; experiment: as above; assay type: cell-based, human; details: A549 cell line
Experimental: as §2

[18] = system: ST1827 ovarian PDX tumor; experiment: Response to prexasertib treatment in ovarian PDX tumor model (Example 3); assay type: in vivo; design: key to Response type: CR = complete regression; PR = partial regression; S = stasis; G = growth
From the text: (§3) To evaluate whether the provided Response-Predictive Signature can predict response to prexasertib treatment, the predicted response for each PDX model was compared to an experimentally determined response to prexasertib treatment for the same PDX model. The experimentally measured response was quantified as follows: if a treated tumor reduced in size/volume, then the percent regression compared to an initial volume of a treated tumor was provided, if a treated tumor increased in size/volume, then a percent ratio of the treated tumor's growth was divided by control tumor (i.e., untreated tumor) growth (d[T/C]). Negative values for regression percentage indicate response to treatment with prexasertib, while positive values indicate continued growth and non-response to prexasertib treatment. The experimentally measured response was further categorized as complete regression (near −100% regression), partial regression (−50% to −100% regression), stasis (<20% median tumor growth to −50% regression), and growth (>20% median tumor growth).

[19] = system: ST206B ovarian PDX tumor; experiment: as above; assay type: in vivo; design: key to Response type: CR = complete regression; PR = partial regression; S = stasis; G = growth
From the text: as §3

[20] = system: ST182B ovarian PDX tumor; experiment: as above; assay type: in vivo; design: key to Response type: CR = complete regression; PR = partial regression; S = stasis; G = growth
From the text: as §3

[21] = system: ST260 ovarian PDX tumor; experiment: as above; assay type: in vivo; design: key to Response type: CR = complete regression; PR = partial regression; S = stasis; G = growth
From the text: as §3

[22] = system: ST2249 ovarian PDX tumor; experiment: as above; assay type: in vivo; design: key to Response type: CR = complete regression; PR = partial regression; S = stasis; G = growth
From the text: as §3

[23] = system: ST2067 ovarian PDX tumor; experiment: as above; assay type: in vivo; design: key to Response type: CR = complete regression; PR = partial regression; S = stasis; G = growth
From the text: as §3

[24] = system: HCT116; experiment: Cell viability, sensitivity to prexasertib (Example 1); design: species or system human; details: HCT116 cell line; based on EC50 from prior publications
Experimental: as §2

[25] = system: PANC1; experiment: as above; design: species or system human; details: PANC1 cell line; based on EC50 from prior publications
Experimental: as §2

[26] = based on measured sensitivity (EC50)
[27] = Homo sapiens, reduction in cell viability by 50%

Structure (SMILES): COc1cccc(OCCCN)c1-c1cc(Nc2cnc(C#N)cn2)n[nH]1 [prexasertib, 5-(5-(2-(3-aminopropoxy)-6-methoxyphenyl)-1H-pyrazol-3-ylamino)pyrazine-2-carbonitrile]
- IC50 [1]: 1.8 nM
- IC50 [2]: 0.9 nM
- IC50 [3]: > 10000 nM
- IC50 [4]: 15 nM
- IC50 [5]: > 10000 nM
- IC50 [6]: > 10000 nM
- IC50 [7]: 1.4 nM
- ORR in trials [8]: 5%
- ORR in trials ([9]; platinum resistant): 0% (platinum
- ORR in trials ([9]; platinum sensitive): 5% (platinum
- EC50 [10]: 100 nM
- ORR in trials [11]: 15%
- ORR in trials [12]: 19% (trial 2^)
- EC50 ([13]; Homo sapiens, OVCAR-3, reduction in cell viability by 50%): 19 nM
- Actual response status [13, 26]: R (EC50 values of less than or equal to 1 μM were considered to be actual responders)
- Actual response status [14, 26]: NR (values of greater than 1 μM were considered to be actual non-responders)
- EC50 ([14]; Homo sapiens, DU-145, reduction in cell viability by 50%): > 10000 nM
- EC50 [15, 27]: 24 nM
- Actual response status [15, 26]: R (EC50 values of less than or equal to 1 μM were considered to be actual responders)
- EC50 [16, 27]: > 10000 nM
- Actual response status [16, 26]: NR (values of greater than 1 μM were considered to be actual non-responders)
- Actual response status [17, 26]: NR (values of greater than 1 μM were considered to be actual non-responders)
- EC50 [17, 27]: > 10000 nM
- Response type [18]: CR
- Best d[T/C], or Regression ([18]; negative = regression): −100%
- Response type [19]: CR
- Best d[T/C], or Regression ([19]; negative = regression): −100%
- Response type [20]: CR
- Best d[T/C], or Regression ([20]; negative = regression): −100%
- Response type [21]: CR
- Best d[T/C], or Regression ([21]; negative = regression): −100%
- Response type [22]: CR
- Best d[T/C], or Regression ([22]; negative = regression): −100%
- Response type [23]: CR
- Best d[T/C], or Regression ([23]; negative = regression): −100%
- Actual response status [24]: R (EC50 values of less than or equal to 1 μM were considered to be actual responders)
- Actual response status [25]: NR (values of greater than 1 μM were considered to be actual non-responders)
